What was measured:
BChE from equine serum = molecular target: T1, BChE from equine serum (Equus caballus, UniProt P81908); test: In vitro BChE inhibition, modified Ellman's method; assay type: biochemical; details: for SI (index selectivity) = IC50 (AChE)/IC50 (BChE): ratio AChE/BChE, higher = more selective to BChE
T1 construct: BChE (from equine serum); purchased Sigma, St. Louis, MO, USA; host or cells: equine serum
Protocol: (§1) The ability of all prepared compounds to inhibit AChE from electric eel (Electrophorus electricus) and BChE from equine serum (both purchased from Sigma, St. Louis, MO, USA) was determined in vitro using a modified Ellman’s method. […] The Ellman’s method is widely used for measuring cholinesterase activity and the effectivity of ChEIs. It is a simple, rapid and direct method to determine SH and –S–S– groups content in proteins. Cholinesterase activity is measured indirectly by quantifying the concentration of 5-thio-2-nitrobenzoic acid (TNB) ion formed in the reaction between disulfide reagent 5,5′-dithiobis-2-nitrobenzoic acid (DTNB) and thiocholine, a product of substrate (i.e., acetylthiocholine, ATCh) hydrolysis catalyzed by cholinesterase.
(§2) All tested compounds were dissolved in DMSO (concentration 0.01 M) and diluted in demineralized water (concentrations 0.001 M and 0.0001 M). The ability of tested compounds to inhibit AChE (from electric eel) and BChE (from equine serum) was determined using the modified Ellman’s method at 25 °C in the presence of phosphate buffered saline (PBS, 0.1 M, pH 7.4) in a glass cuvette with 1 cm optical path. The enzyme activity in total reaction mixture (2 mL) was 0.2 U/mL, the concentration of substrate ATCh 40 μM and the concentration of DTNB 0.1 mM for all reactions. The IC50 value was obtained from the dependence of v0/vi on the concentration of the tested compound (inhibitor), where v0 is the reaction rate of uninhibited reaction and vi is the reaction rate of inhibited reaction (for the given concentration of the inhibitor). First, v0 was determined. Into the cuvette PBS (0.1 M, pH 7.4), DTNB and ATCh were placed. The enzymatic reaction was started by adding the enzyme. […] The measurement was performed in triplicate at least, and average v0 was determined. Then, vi (for the given concentration of the inhibitor) was determined. Into the cuvette DTNB, ATCh, a chosen volume of the suitably diluted inhibitor (to achieve the required concentration of the inhibitor in the total reaction mixture) and a certain volume of PBS (to achieve the total volume of the reaction mixture 2 mL after adding the enzyme) were placed. The enzymatic reaction was started by adding the enzyme. […] For determination of IC50 values, twelve different concentrations of inhibitor were used and each measurement was performed in triplicate at least.

[1] = tested on: human monocytic leukemia THP-1 cells; test: In vitro cytotoxicity assay (WST-1); assay type: cell-based; details: 24 h, highest tested concentration 30 μM, read-out: tox. IC50
Protocol: The cytotoxicity was evaluated as the IC50 value (compound concentration causing 50% inhibition of cell population proliferation) (see Table 1). […] Based on these observations, it can be concluded that the discussed compounds can be considered as non-toxic agents for subsequent design of novel drugs.
Human monocytic leukemia THP-1 cells were used for in vitro toxicity assay. Cells were obtained from the European Collection of Cell Cultures (ECACC, Salisbury, UK) and routinely cultured in RPMI 1640 (Lonza, Verviers, Belgium) medium supplemented with 10% fetal bovine serum (FBS, Sigma), 2% L-glutamine, 1% penicillin and streptomycin (Lonza, Verviers, Belgium) at 37 °C with 5% CO2. Cells were passaged at approximately one week intervals. The cytotoxicity of the compounds was determined using a WST-1 assay kit (Roche Diagnostics, Mannheim, Germany) according to the manufacturer’s instructions. The tested compounds were dissolved in DMSO and added in five increasing concentrations (0.37, 1.1, 3.3, 10, and 30 μM) to the cell suspension in the culture RPMI 1640 medium. The maximum concentration of DMSO (Sigma) in the assays never exceeded 0.1%. Subsequently, the cells were incubated for 24 h at 37 °C with 5% CO2. For WST-1 assays, cells were seeded into 96-well plates (5 × 10^4 cells/well in 100 μL culture medium) in triplicate in serum-free RPMI 1640 medium, and measurements were taken 24 h after the treatment with the compounds. The median inhibition concentration values, IC50, were deduced through the production of a dose-response curve. All data were evaluated using the GraphPad Prism 5.00 software (GraphPad Software, San Diego, CA, USA).

[2] = molecular target: T2, AChE from electric eel (Electrophorus electricus) (Electrophorus electricus, UniProt O42275); test: In vitro AChE inhibition, modified Ellman's method; assay type: biochemical
T2 construct: AChE (from electric eel) and BChE (from equine serum); purchased Sigma, St. Louis, MO, USA; host or cells: electric eel (animal source)
Protocol: as §1, §2

T2 sequence (O42275 24-633): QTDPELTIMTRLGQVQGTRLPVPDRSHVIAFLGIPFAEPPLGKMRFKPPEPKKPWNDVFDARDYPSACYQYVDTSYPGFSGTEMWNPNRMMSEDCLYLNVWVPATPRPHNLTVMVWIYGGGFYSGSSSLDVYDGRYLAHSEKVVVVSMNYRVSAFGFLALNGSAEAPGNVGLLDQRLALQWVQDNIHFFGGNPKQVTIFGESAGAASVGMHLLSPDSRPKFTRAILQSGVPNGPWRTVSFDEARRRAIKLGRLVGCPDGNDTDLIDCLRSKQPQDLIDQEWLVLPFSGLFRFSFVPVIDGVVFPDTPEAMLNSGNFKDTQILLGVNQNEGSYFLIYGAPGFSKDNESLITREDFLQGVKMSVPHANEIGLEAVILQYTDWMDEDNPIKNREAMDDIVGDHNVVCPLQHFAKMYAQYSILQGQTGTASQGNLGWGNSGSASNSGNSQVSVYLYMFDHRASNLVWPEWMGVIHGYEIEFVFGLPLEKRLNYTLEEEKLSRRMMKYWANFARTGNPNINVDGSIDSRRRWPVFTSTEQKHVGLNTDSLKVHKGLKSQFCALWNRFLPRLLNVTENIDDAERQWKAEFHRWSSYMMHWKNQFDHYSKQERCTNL
T1 sequence (P81908 whole entry): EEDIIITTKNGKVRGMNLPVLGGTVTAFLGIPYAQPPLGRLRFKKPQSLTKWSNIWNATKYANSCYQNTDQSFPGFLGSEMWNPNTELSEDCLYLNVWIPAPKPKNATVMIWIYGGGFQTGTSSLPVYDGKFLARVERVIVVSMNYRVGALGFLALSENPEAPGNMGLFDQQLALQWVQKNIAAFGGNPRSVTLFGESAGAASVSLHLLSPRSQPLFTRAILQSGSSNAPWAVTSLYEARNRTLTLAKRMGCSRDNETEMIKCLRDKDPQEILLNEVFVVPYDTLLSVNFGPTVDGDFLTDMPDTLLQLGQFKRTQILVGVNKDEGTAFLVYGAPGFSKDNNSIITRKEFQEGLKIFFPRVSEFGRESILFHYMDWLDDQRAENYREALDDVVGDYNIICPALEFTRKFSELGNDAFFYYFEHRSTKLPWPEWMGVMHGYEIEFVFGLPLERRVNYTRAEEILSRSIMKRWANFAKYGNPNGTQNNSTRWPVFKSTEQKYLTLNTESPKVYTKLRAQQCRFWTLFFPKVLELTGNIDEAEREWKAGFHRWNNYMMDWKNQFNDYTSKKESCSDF

| Structure (SMILES) | IC50 (BChE from equine serum) [µM] | selectivity to BChE (in words) (BChE from equine serum; BChE vs AChE) | SI (index selectivity) = IC50 (AChE)/IC50 (BChE) (BChE from equine serum) | IC50 [1] [µM] | IC50 [2] [µM] |
| --- | --- | --- | --- | --- | --- |
| O=C(Nc1ccccc1O)[C@@H]1CCCN1C(=O)OCc1ccccc1 [Compound 9a, Benzyl (2S)-2-[(2-hydroxyphenyl)carbamoyl]pyrrolidine-1-carboxylate] | 42 ± 1.26 | greater selectivity to BChE | 3.65 | > 30 | 153 ± 9.97 |
| O=C(Nc1cccc(O)c1)[C@@H]1CCCN1C(=O)OCc1ccccc1 [Compound 9b, Benzyl (2S)-2-[(3-hydroxyphenyl)carbamoyl]pyrrolidine-1-carboxylate] | 86.22 ± 0.4 | – | 1.41 | > 30 | 122 ± 1.38 |
| O=C(Nc1ccc(O)cc1)[C@@H]1CCCN1C(=O)OCc1ccccc1 [Compound 9c, Benzyl (2S)-2-[(4-hydroxyphenyl)carbamoyl]pyrrolidine-1-carboxylate] | 133 ± 0.39 | – | 0.68 | > 30 | 91.08 ± 0.27 |

From publication PMC6150311, “Proline-Based Carbamates as Cholinesterase Inhibitors” (Molecules : A Journal of Synthetic Chemistry and Natural …, 2017)
